Measured values: patent US20170342046A1, “Fatty Acid Cysteine-Based Conjugates and Their Use in Treating Medical Disorders” (Catabasis Pharmaceuticals, Inc., priority 2016, published 2017)

Experiments:
C2C12 cells = assay: Metabolic flux analysis: oxygen consumption rate (OCR) in Sea Horse XF96 under H2O2 stress; type: cell-based, mouse; conditions: for OCR over time, bioenergetics: treated 4 hours prior to 1 mM H2O2 stress; for OCR corrected for antimycin A, mitochondrial bioenergetics / OCR upon the addition of FCCP: 1 mM H2O2 stress
Procedure: C2C12 cells were cultured in Sea Horse XF96 plates according to the manufacturer's instructions and established protocols (see www.seahorsebio.com/products/instruments/selection.php; Yao et al., PROC. NATL. ACAD. SCI. USA (2009) 106, p. 14670-14675).
On the day of the assay, cells were incubated with the compounds of the invention for either 4 hours or 24 hours. The short 4 hour incubation with the test compounds allowed one to evaluate for improvement of mitochondrial bioenergetics under the “scavengers” conditions (i.e. conditions in which the test compounds could effectively scavenge the various reactive oxygen species). The longer 24 hour incubation with the test compounds allowed one to evaluate for improvement of mitochondrial bioenergetics under the Nrf2 conditions (i.e. conditions in which the test compounds could effectively activate the Nrf2 antioxidant pathway in order to cope with the various reactive oxygen species). For these assays, H2O2 was used as the source of reactive oxygen species. Under the general stress test, cells were then exposed to either 500 μM of H2O2 or 1 mM of H2O2 for 4 hours before the evaluation in the Sea Horse system. Baseline measurements of the oxygen consumption rate (OCR) were taken before sequential injections of the various mitochondrial inhibitors. Readings were taken after addition of the mitochondrial inhibitor before injection of the subsequent inhibitors. The mitochondrial inhibitors that were used included oligomycin (1 μM), FCCP (1 μM) and Antimycin A (1 μM). Oligomycin is a known inhibitor ATP synthase; addition of this reagent essentially stopped the synthesis of ATP. Antimycin A inhibits the electron transport chain in the mitochondria. FCCP essentially uncouples the mitochondria and allows one to measure the maximum respiration. Measurements of the OCR following the addition of FCCP allows one to assess the mitochondrial content. An improvement in the OCR following the addition of FCCP is a reflection of the improvement in bioenergetics, when the proper control groups were put in place. The OCR were automatically calculated and recorded by the Sea Horse XF96 software. Ten measurements were taken at each of the indicated time points. Statistical significance in different treatment groups were determined by an ANOVA, followed by a Newman-Keuls post hoc analysis. Compounds I-1, I-3 and 1-5 were evaluated for mitochondrial bioenergetics under various conditions.

[1] = tested on: human epithelial cells from CF patients with homozygous ΔF508 mutation; conditions: 250 μM; cited from earlier work
[2] = tested on: transcription factor Nrf2; assay: Assay to evaluate Nrf2 activity: mRNA of Nrf2 gene expression targets by RT-PCR (HPRT internal control); type: cell-based, mouse; conditions: synergy experiment
[3] = tested on: transcription factor Nrf2; assay: as above; type: cell-based, mouse; conditions: for ΔmRNA/HPRT level for the NQO1 gene / ΔmRNA/HPRT level for the Gclc gene / ΔmRNA/HPRT level for the Gclm gene / ΔmRNA/HPRT level for the Gsta2 gene / ΔmRNA/HPRT level for the HMOX gene / ΔmRNA/HPRT level for the SRXN1 gene / ΔmRNA/HPRT level for the TXNRD1 gene: 24 hours, C2C12
Excerpt: The transcription factor Nrf2 and its repressor Keap1 regulate a large network of antioxidant genes. The mitochondrial inner membrane is particularly susceptible to damage by reactive oxygen species. Antioxidants can play a large role in preserving the mitochondrial inner membrane and maintaining the integrity of the respiratory chain. Holmstrom et al. (BIOLOGY OPEN (2013) 2, p. 761-770) have also shown that the Nrf2 pathway can potentially control the NADH substrates that are needed for mitochondrial respiration. Activation of the Nrf2 pathway is a way of improving the mitochondrial bioenergetics. The compounds of the invention were evaluated in an assay that was designed to assess the various antioxidant genes that could be regulated by the transcription factor Nrf2.
(§1) Briefly, mouse C2C12 cells were treated with the test compounds when about 70% of the myotubes were differentiated (Day 13). For the assay, cells were treated with the test compounds for 24 hours in low glucose, 0.5% FBS DMEM and 0.1% BSA final concentration. The total RNA was harvested and the relative mRNA expression levels were assessed via RT-PCR with Hypoxanthine phosphoribosyltransferase (“HPRT”) as the internal control. Data were represented as the mean ΔmRNA/HPRT, error bars represent the standard error of the mean (SEM). Significance was determined by student's t-test in comparison to control. The Nrf2 gene expression targets include:
Gclc—Glutamate-cysteine ligase catalytic subunit; Gclm—Glutamate-cysteine ligase modifier subunit;
Gsta2—Glutathione S-transferase A2;
HMOX1—Heme oxygenase 1; NQO1—NAD(P)H dehydrogenase (quinone) 1;
TXNRD1—Thioredoxin reductase 1.
Compound I-1 was evaluated in this assay for any upregulation in the seven Nrf2 gene expression targets listed above.

mouse C2C12 cells = assay: Signs of toxicity seen in the Nrf2 activity assay; type: cell-based
Procedure: as §1
The ΔmRNA/HPRT level for NQO1 was selected for this experiment. […] With this covalent conjugate, the two key bioactive components were the N-acetylcysteine amide (NACA) and the omega-3 fatty acid. […] However, the effect was modest and a high concentration of NACA was needed. […] In order to obtain the same level of activity as 12 μM of the fatty acid cysteine conjugate I-1, a much higher concentration of 2,500 μM of NACA was needed. In this assay, the omega-3 fatty acid DHA began to show signs of toxicity at concentration of >25 μM. […] In terms of combination of the individual components, the combination of A (consisting of 312.5 μM of NACA and 3.12 μM of DHA) and the combination of B (consisting of 625 μM of NACA and 6.25 μM of DHA) were used.

CC/C=C\C/C=C\C/C=C\C/C=C\C/C=C\C/C=C\CCC(=O)N[C@@H](CSSC(C)(C)CNC(=O)c1cccnc1)C(=O)O [I-3, N-((4Z,7Z,10Z,13Z,16Z,19Z)-docosa-4,7,10,13,16,19-hexaenoyl)-S-((2-methyl-1-(nicotinamido)propan-2-yl)thio)-L-cysteine]
OCR over time, bioenergetics (C2C12 cells; 1 μM and 10 μM): dose-dependent increase in bioenergetics | OCR corrected for antimycin A, mitochondrial bioenergetics (C2C12 cells; 10 μM, 4 hours): significant improvement in mitochondrial bioenergetics, essentially comparable to the positive control NAC

CC(=O)N[C@@H](CS)C(=O)O [NAC, N-acetyl cysteine, reference compound]
OCR upon the addition of FCCP (FIG. 1A) (C2C12 cells; 5 mM NAC positive control, 4 hours, 500 μM H2O2 stress): significant restoration of the OCR upon the addition of FCCP | OCR upon the addition of FCCP (C2C12 cells; 5 mM NAC positive control, 4 hours): increase in the OCR upon the addition of FCCP; almost to the same level observed with the normal control groups

NCCSSCCN [cystamine]
CFTR at the plasma membrane [1]: restoration of the CFTR to the plasma membrane | autophagy [1]: up-regulation of autophagy

CC/C=C\C/C=C\C/C=C\C/C=C\C/C=C\C/C=C\CCC(=O)N[C@@H](CSSC(C)(C)CNC(=O)c1cccnc1)C(N)=O [I-1, N-(2-(((R)-3-amino-2-((4Z,7Z,10Z,13Z,16Z,19Z)-docosa-4,7,10,13,16,19-hexaenamido)-3-oxopropyl)disulfanyl)-2-methylpropyl)nicotinamide]
expression of mRNA of NQO1, dose response (FIG. 6) [2]: dose-dependent increase in the expression of mRNA of NQO1 | ΔmRNA/HPRT level for the NQO1 gene ([3]; 6.25 μM): an increase in the expression of mRNA | ΔmRNA/HPRT level for the Gclc gene ([3]; 12.5 μM): significant increase in the expression of mRNA | ΔmRNA/HPRT level for the Gclm gene ([3]; 12.5 μM): significant increase in the expression of mRNA | ΔmRNA/HPRT level for the Gsta2 gene ([3]; 12.5 μM): significant increase in the expression of mRNA | ΔmRNA/HPRT level for the HMOX gene ([3]; 12.5 μM): significant increase in the expression of mRNA | ΔmRNA/HPRT level for the NQO1 gene ([3]; 12.5 μM): two-fold increase | ΔmRNA/HPRT level for the SRXN1 gene ([3]; 12.5 μM): significant increase in the expression of mRNA | ΔmRNA/HPRT level for the TXNRD1 gene ([3]; 12.5 μM): significant increase in the expression of mRNA | ΔmRNA/HPRT level for the NQO1 gene ([3]; 1.56 to 3.12 μM): No significant increase | ΔmRNA/HPRT level for the Gclc gene ([3]; 1.56 to 6.25 μM): No significant increase | ΔmRNA/HPRT level for the Gclm gene ([3]; 1.56 to 6.25 μM): No significant increase | ΔmRNA/HPRT level for the Gsta2 gene ([3]; 1.56 to 6.25 μM): No significant increase | ΔmRNA/HPRT level for the HMOX gene ([3]; 1.56 to 6.25 μM): No significant increase | ΔmRNA/HPRT level for the SRXN1 gene ([3]; 1.56 to 6.25 μM): No significant increase | ΔmRNA/HPRT level for the TXNRD1 gene ([3]; 1.56 to 6.25 μM): No significant increase | Nrf2 pathway activation compared with individual components or their combination ([3]; NQO1 mRNA, FIG. 6): able to increase the Nrf2 pathway synergistically | concentration at which maximal response of NQO1 mRNA was observed ([3]; synergy experiment, FIG. 6): 12 µM | OCR over time, bioenergetics (FIG. 2A) (C2C12 cells; 1 μM and 10 μM, treated 24 hours prior to 500 μM H2O2 stress): significant improvement in bioenergetics, and the effect was dose-dependent | OCR upon the addition of FCCP (FIG. 1A) (C2C12 cells; 1 μM compound, treated 4 hours, then 500 μM H2O2 stress): significant restoration of the OCR upon the addition of FCCP, essentially to the same level observed with the normal control group and the positive control groups | OCR corrected for antimycin A, mitochondrial bioenergetics (FIG. 1B) (C2C12 cells; 1 μM or 10 μM, 4 hours, 500 μM H2O2 stress): restored mitochondrial bioenergetics to about the same level observed with normal cells | OCR corrected for antimycin A, bioenergetics (FIG. 2B) (C2C12 cells; 1 μM, 24 hours, 500 μM H2O2 stress): restored the bioenergetics to the same level observed with the normal control group | OCR upon the addition of FCCP (FIG. 1A) (C2C12 cells; 10 μM compound, treated 4 hours, then 500 μM H2O2 stress): significant restoration of the OCR upon the addition of FCCP, essentially to the same level observed with the normal control group and the positive control groups | OCR over time compared with control group and the two positive control groups (FIG. 2A) (C2C12 cells; 10 μM, 24 hours, 500 μM H2O2 stress): considerably higher | increase in the OCR compared with the two positive control groups (catalase or NAC) (FIG. 2B) (C2C12 cells; 10 μM, 24 hours, 500 μM H2O2 stress, corrected for antimycin A): ~4 fold

CC/C=C\C/C=C\C/C=C\C/C=C\C/C=C\C/C=C\CCC(=O)O [DHA, all-cis-4,7,10,13,16,19-docosahexaenoic acid, reference compound]
mRNA level of the NQO1 gene ([3]; tested at up to 12 μM, FIG. 6): did not observe any upregulation | concentration at which signs of toxicity began to show (mouse C2C12 cells): > 25 µM

CC/C=C\C/C=C\C/C=C\C/C=C\C/C=C\C/C=C\CCC(=O)N[C@@H](CSSC(C)(C)CNC(=O)CC(O)C[N+](C)(C)C)C(N)=O (stereo partly drawn) [I-5, 4-((2-(((R)-3-amino-2-((4Z,7Z,10Z,13Z,16Z,19Z)-docosa-4,7,10,13,16,19-hexaenamido)-3-oxopropyl)disulfanyl)-2-methylpropyl)amino)-2-hydroxy-N,N,N-trimethyl-4-oxobutan-1-aminium]
OCR over time, bioenergetics (C2C12 cells; 1 μM and 10 μM): dose-dependent increase in bioenergetics | OCR corrected for antimycin A, mitochondrial bioenergetics (C2C12 cells; 10 μM, 4 hours): significant improvement in mitochondrial bioenergetics, essentially comparable to the two positive control arms, catalase or NAC

catalase [reference compound]
OCR upon the addition of FCCP (FIG. 1A) (C2C12 cells; 5K U/mL catalase positive control, 4 hours, 500 μM H2O2 stress): significant restoration of the OCR upon the addition of FCCP | OCR upon the addition of FCCP (C2C12 cells; 5K U/mL catalase positive control, 4 hours): increase in the OCR upon the addition of FCCP; almost to the same level observed with the normal control groups
